# Reference: US20240238228A1, “COMPOSITIONS AND METHODS FOR TREATING ALLERGIES AND INFLAMMATORY CONDITIONS” (UNIVERSITY OF PITTSBURGH-OF THE COMMONWEALTH SYSTEM OF …, priority 2021, published 2024)
# How the values were obtained:
# BMMCs [1] = assay: IgE+Ag-activated BMMCs: cytokine release (ELISA) and RNA (RT-PCR); type: cell-based, murine
# Procedure: Mast cells were differentiated from murine bone marrow as has been described. In brief, marrow was expunged from the femurs and tibias of female mice. Cultures were maintained in complete MC/9 medium containing recombinant murine IL-3 (25 ng/mL, Peprotech) for 4-6 weeks prior to use. Peritoneal MCs (PMCs) were expanded from peritoneal washes with MC/9 medium supplemented with IL-3 (25 ng/mL) and SCF (Peprotech, 10 ng/mL) for 21 days. Purity of BMMCs and PMCs was confirmed to be greater than 95% (FIG. 8A). To initiate signaling via the FcεRI, MCs were loaded with IgE (1.0 μg/ml, clone SPE-7, Sigma) for a minimum of 1 h then crosslinked with dinitrophenyl-human serum albumin (DNP-HSA, 100 ng/mL or as indicated). NKA (either LifeTein (Summerset, NJ) or Phoenix Pharmaceuticals (Burlingham, CA)) stock solutions were prepared in tissue culture grade water (100 μM) and stored at -20° C. for a maximum of 30 days. Glyburide (Cayman Chemical) was prepared in DMSO then diluted in PBS. Calpain activity was detected from cell-free supernatants using the Calpain-Glo Protease Assay (Promega). Supernatants were incubated with substrate for 10 min prior to luminescent detection. In some experiments, glyburide or vehicle (0.1% DMSO) were added to cells 10 min prior to Ag. ELISA kits from eBioscience (IL-13), BioLegend, (TNF and IL-10) or RayBiotech (NKA) and used in accord with the manufacturer's recommendations. […] Total RNA was isolated from either MCs or murine ear tissue 3 h hours after NKA injection. Tissue was homogenized in Navy RINO tubes (Next Advance) in a Bullet Blender Storm (Next Advance). RNA was extracted per standard methods with Trizol (Invitrogen). cDNA was reversed transcribed with the Quantitech Reverse Transcription Kit (Qiagen). PCR products were amplified with Fast SybrGreen (ABI) on a StepOne Plus Cycler ([…]) using the following primers: TNF […] NO: 5), TNF […] NO: 6); IL13 […] NO: 7), IL13 […] NO: 8); IL10 […] NO: 9); IL10 […] NO: 10); Bactin […] NO: 11); Bactin […] NO: 12). Data are presented as 2^-ΔΔCT using f-actin as the housekeeping gene and normalizing to either untreated cells or naïve control mice.
# atopic dermatitis = assay: MC903-induced atopic dermatitis model; type: in vivo, murine; details: MC903 4 nmol/ear daily, glyburide 2.5 mg/kg, i.p.
# Procedure: Atopic dermatitis was induced by treating ears with MC903 (4 nmol/ear, daily). The contralateral ear was treated with the vehicle for MC903. Mice were treated with either glyburide (2.5 mg/kg, i.p., daily) or vehicle control. (A) Ear thickness was measured daily. (B-C) On day 11, mice were euthanized and ear tissue embedded sectioned and stained with (B) H & E to evaluate cellular infiltration or (C) Avidin (AvRho) to evaluate mast cells. […] (B-C) show representative images from 3-7 mice over two experiments.
# PMCs [2] = assay: IgE+Ag-activated PMCs: cytokine release (ELISA); type: cell-based, murine; set-up: detectible levels of IL-10 / levels of IL-13: dose or concentration left out as unconfirmed
# Procedure: Mast cells were differentiated from murine bone marrow as has been described. In brief, marrow was expunged from the femurs and tibias of female mice. Cultures were maintained in complete MC/9 medium containing recombinant murine IL-3 (25 ng/mL, Peprotech) for 4-6 weeks prior to use. Peritoneal MCs (PMCs) were expanded from peritoneal washes with MC/9 medium supplemented with IL-3 (25 ng/mL) and SCF (Peprotech, 10 ng/mL) for 21 days. Purity of BMMCs and PMCs was confirmed to be greater than 95% (FIG. 8A). To initiate signaling via the FcεRI, MCs were loaded with IgE (1.0 μg/ml, clone SPE-7, Sigma) for a minimum of 1 h then crosslinked with dinitrophenyl-human serum albumin (DNP-HSA, 100 ng/mL or as indicated). NKA (either LifeTein (Summerset, NJ) or Phoenix Pharmaceuticals (Burlingham, CA)) stock solutions were prepared in tissue culture grade water (100 μM) and stored at −20° C. for a maximum of 30 days. Glyburide (Cayman Chemical) was prepared in DMSO then diluted in PBS. Calpain activity was detected from cell-free supernatants using the Calpain-Glo Protease Assay (Promega). Supernatants were incubated with substrate for 10 min prior to luminescent detection. In some experiments, glyburide or vehicle (0.1% DMSO) were added to cells 10 min prior to Ag. ELISA kits from eBioscience (IL-13), BioLegend, (TNF and IL-10) or RayBiotech (NKA) and used in accord with the manufacturer's recommendations.
# PMCs [3] = assay: Avidin / LAMP-1 surface staining of activated PMCs; type: cell-based, murine; set-up: percentage of LAMP-1^+ and avidin^+ PMCs: dose or concentration left out as unconfirmed
# Procedure: MCs were collected and washed with PBS containing 0.5% BSA and 0.1% sodium azide. Non-specific binding was inhibited using FcBlock (PBS with 2.0% goat serum and 0.25 mg/mL anti-CD16/32 (clone 2.4G2, BD Biosciences). Surface staining was done with anti-CD117 eFluor450 (clone 2B8, ThermoFisher), anti-FcεRI FITC (clone MAR-1, ThermoFisher) and anti-ABCA1 Alexa Fluor 647 (clone 5A1-1422, BioRad). Cells were washed with Wash Buffer (PBS with 0.5% BSA and 0.1% sodium azide). To detect differences in granulated proteins at the cell surface, IgE-loaded MCs were activated with DNP-HSA with or without NKA in Tyrode's Buffer for 30 min, washed with Wash Buffer then stained with Avidin Alexa Fluor488 (Invitrogen, Av488, 0.8 μg/5×10^5 cells) and anti-LAMP-1 PE (clone eBio 1D48, ThermoFisher). Data were acquired on either a LSRII or a Fortessa (BD BioSciences). Analysis was performed with FlowJo v10.4 (BD Biosciences).
# BMMCs [4] = assay: β-hexosaminidase release from BMMCs; type: cell-based, murine; details: incubated with NKA or activated with IgE and antigen in the presence of NKA
# Procedure: Mast cells (5×10^5-1×10^6) were loaded with IgE ([…]) for a minimum of 3 h in Tyrode's Buffer. Neurokinin A ([…]) was added with DNP-HSA (Sigma, as indicated or 100 ng/mL) for 40 min at 37 C. Cells and supernatants were collected, cell pellets were lysed in Tyrode's Buffer by freeze-thawing then incubated with p-nitrophenyl N-acetyl j-D-glucosaminide (EMB Millipore, 5 mM) dissolved in citrate buffer (0.04 M, pH 4.5) for 90 minutes. The enzymatic reaction was stopped with glycine (0.4 M, pH 10.7). Absorbance at 450 nm was read. The average percentage of b-hexosaminidase release from triplicate values was calculated as (ODsup/ODsup+ODlysate)×100(%).
# [5] = IL-10 KO BMMCs (absence of autocrine IL-10)
# [6] = overnight activation with IgE+Ag in the presence of NKA
# [7] = control Mcpt5Cre^+×IL10^WT PMCs
molecule,measurement,setting,value
"COc1ccc(Cl)cc1C(=O)NCCc1ccc(S(=O)(=O)NC(=O)NC2CCCCC2)cc1 [glyburide, reference compound]",NKA-mediated inhibition with added glyburide,"BMMCs [1]; glyburide and NKA (1000 nM), BMMCs or PMCs, 20-24 h",did not further increase
same,detectible levels of IL-10,"BMMCs [1]; glyburide, 20-24 h in culture",increased
same,levels of IL-13,"BMMCs [1]; glyburide, 20-24 h in culture",decreased
same,levels of TNF,"BMMCs [1]; glyburide, 20-24 h in culture",decreased
same,cutaneous inflammation,atopic dermatitis,reduces cutaneous inflammation
same,levels of TNF,"PMCs [2]; glyburide 50 mM, 20-24 h in culture",decreased
same,detectible levels of IL-10,"PMCs [2]; glyburide, 20-24 h in culture",increased
same,levels of IL-13,"PMCs [2]; glyburide, 20-24 h in culture",decreased
same,percentage of LAMP-1^+ and avidin^+ PMCs,PMCs [3]; IgE-activated 30 minutes,reduced the percentage
Neurokinin A [NKA],IL10 RNA,BMMCs [1]; 60 min after activation,increased
same,IL13 transcription,BMMCs [1]; 60 min after activation,inhibited
same,TNF transcription,BMMCs [1]; 60 min after activation,inhibited
same,IL-13 release,BMMCs [1]; [5],did not inhibit
same,TNF release,BMMCs [1]; [5],did not inhibit
same,IL-13 release,BMMCs [1]; [6],inhibited
same,TNF release,BMMCs [1]; [6],inhibited
same,IL-10 protein in supernatants,BMMCs [1]; overnight culture with NKA,significant increase
same,β-hexosaminidase release,BMMCs [4],no difference
same,IL-13 release,PMCs [2]; [7],inhibited
same,TNF release,PMCs [2]; [7],inhibited
same,effects of NKA on IL-13 and TNF release,PMCs [2]; without PMC-derived IL-10 (Mcpt5Cre^+×IL10^fl/fl),reversed
same,percentage of avidin^+ and LAMP-1V PMCs,"PMCs [3]; 30 min after activation, compared to control",reduced the percentage
